Drawing on patent US20110098352A1, “N,N-DISUBSTITUTED AMINOALKYLBIPHENYL ANTAGONISTS OF PROSTAGLANDIN D2 RECEPTORS” (AMIRA PHARMACEUTICALS, INC., priority 2008, published 2011), this text covers IC50 for 16 molecules.

One test addresses T1, human DP2 receptor (Homo sapiens, UniProt Q9Y5Y4).
T1 construct: expressed in transfected cells
T1 sequence (Q9Y5Y4 1-395): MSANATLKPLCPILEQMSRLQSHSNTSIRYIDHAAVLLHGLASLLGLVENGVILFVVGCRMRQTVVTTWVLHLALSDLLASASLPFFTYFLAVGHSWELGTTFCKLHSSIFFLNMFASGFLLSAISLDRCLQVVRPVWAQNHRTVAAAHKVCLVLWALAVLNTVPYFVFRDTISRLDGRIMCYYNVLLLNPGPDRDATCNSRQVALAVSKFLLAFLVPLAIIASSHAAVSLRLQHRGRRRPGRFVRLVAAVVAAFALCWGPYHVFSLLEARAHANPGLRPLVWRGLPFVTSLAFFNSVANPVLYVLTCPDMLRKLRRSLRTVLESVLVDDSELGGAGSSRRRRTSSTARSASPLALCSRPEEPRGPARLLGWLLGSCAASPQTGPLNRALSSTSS
As to the kind of experiment: DP2/CRTH2 radioligand binding assay using [3H]PGD2. The following applies: [3H]PGD2 binding, membranes of HEK293 cells expressing recombinant human DP2; read-out: hDP2. In short, it runs like this:
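HEK293 membranes with stable recombinant human DP2, incubated with 1 nM [3H]PGD2 and compound 60 min at room temperature in pH 7.4 HEPES/MnCl2/EDTA buffer, with or without 0.2% human serum albumin.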

For test [1], the target named is T2, recombinant human CRTH2 receptor (Homo sapiens, UniProt Q9Y5Y4).
T2 construct: expressed in transfected cells
T2 sequence (Q9Y5Y4 1-395): T1 sequence (Q9Y5Y4 1-395)
As to the kind of experiment: GTPγS binding assay. As to conditions: +HSA; CHO cell membranes, 80 nM PGD2; read-out: hDP2 GTPγS μM (+HSA). The format is biochemical. Here is the method:
The ability of a compound to inhibit binding of GTP to DP2 is assessed via a membrane GTPγS assay. CHO cells stably expressing the recombinant human CRTH2 receptor are resuspended in 10 mM Hepes, 7.4 containing 1 mM DTT, lysed and centrifuged at 75,000×g to pellet the membranes. The membranes are resuspended in 10 mM Hepes, 7.4 containing 1 mM DTT and 10% glycerol. […] The reactions are terminated by rapid filtration through Whatman GF/B glass fibre filter plates. The filter plates are washed 3 times with 1 ml cold Assay Buffer and dried. Scintillant is then added to the plates and the radioactivity retained on the filters is determined on a Packard TopCount (Perkin Elmer). Specific binding is determined as total radioactive binding minus non-specific binding in the absence of the ligand (80 nM PGD2). IC50s were determined using Graphpad prism analysis of drug titration curves.

Another test deals with T3, human DP1 receptor (Homo sapiens, UniProt Q13258).
T3 construct: tissue Biological Specialty Corporation; host or cells: human platelets, membranes
T3 sequence (Q13258 1-359): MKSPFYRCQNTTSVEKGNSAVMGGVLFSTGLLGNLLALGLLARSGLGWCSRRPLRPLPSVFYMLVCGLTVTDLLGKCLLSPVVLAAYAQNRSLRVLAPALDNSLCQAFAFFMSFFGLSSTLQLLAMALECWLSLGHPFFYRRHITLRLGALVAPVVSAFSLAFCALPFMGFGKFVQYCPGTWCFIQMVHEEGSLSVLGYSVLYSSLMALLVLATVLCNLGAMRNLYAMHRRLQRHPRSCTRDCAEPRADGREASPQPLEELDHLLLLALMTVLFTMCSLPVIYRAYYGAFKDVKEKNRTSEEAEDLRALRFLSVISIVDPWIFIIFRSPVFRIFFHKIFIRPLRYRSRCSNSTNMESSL
As to the kind of experiment: DP1 radioligand membrane binding assay using [3H]BWA868C. As to conditions: [3H]BWA868C binding, human platelet membranes; read-out: hDP1.

Structures are written as SMILES.

Turning to `CCN(Cc1cc(C(F)(F)F)ccc1-c1cc(CC(=O)O)ccc1OC)C(=O)OCc1cc(F)cc(F)c1` [Compound 1-40, (2′-{[(3,5-Difluoro-benzyloxycarbonyl)-ethyl-amino]-methyl}-6-methoxy-4′-trifluoromethyl-biphenyl-3-yl)-acetic acid], the results for the IC50 (on human DP2 receptor; in test [1]; on human DP1 receptor) were < 300 nM, < 0.3 µM and > 1000 nM, respectively.
Taken in the same sequence, the figures for `CCN(Cc1cc(C(F)(F)F)ccc1-c1cc(CC(=O)O)ccc1OC)C(=O)OCc1ccc(Cl)cc1` [Compound 1-42, (2′-{[(4-Chloro-benzyloxycarbonyl)-ethyl-amino]-methyl}-6-methoxy-4′-trifluoromethyl-biphenyl-3-yl)-acetic acid] were < 300 nM, < 0.3 µM and > 1000 nM.
Taken in the same sequence, the figures for `CCN(Cc1cc(C(F)(F)F)ccc1-c1cc(CC(=O)O)ccc1OC)C(=O)OCc1cccc(Cl)c1` [Compound 1-43, (2′-{[(3-Chloro-benzyloxycarbonyl)-ethyl-amino]-methyl}-6-methoxy-4′-trifluoromethyl-biphenyl-3-yl)-acetic acid] were < 300 nM, < 0.3 µM and > 1000 nM.
Taken in the same sequence, the figures for `CCN(Cc1cc(C(F)(F)F)ccc1-c1cc(CC(=O)O)ccc1OC)C(=O)OC(C)c1ccc(Cl)cc1` (stereo not drawn) [Compound 1-44, [2′-({[1-(4-Chloro-phenyl)-ethoxycarbonyl]-ethyl-amino)-methyl)-6-methoxy4′-trifluoromethyl-biphenyl-3-yl]-acetic acid] were < 300 nM, < 0.3 µM and > 1000 nM.
For `CCN(Cc1cc(C(F)(F)F)ccc1-c1cc(CC(=O)O)ccc1OC)C(=O)C(C)Oc1ccccc1` (stereo not drawn) [Compound 1-45, (2′-{[Ethyl-(2-phenoxy-propionyl)-amino]-methyl}-6-methoxy-4′-trifluoromethyl-biphenyl-3-yl)-acetic acid], the IC50 at human DP2 receptor is < 300 nM; in test [1], < 0.3 µM; on human DP1 receptor it was > 1000 nM.
Taken in the same sequence, the figures for `CCN(Cc1cc(C(F)(F)F)ccc1-c1cc(CC(=O)O)ccc1OC)C(=O)COC` [Compound 1-46, (2′-{[Ethyl-(2-methoxy-acetyl)-amino]-methyl}-6-methoxy-4′-trifluoromethyl-biphenyl-3-yl)-acetic acid] were < 300 nM, < 0.3 µM and > 1000 nM.
Taken in the same sequence, the figures for `CCN(Cc1cc(C(F)(F)F)ccc1-c1cc(CC(=O)O)ccc1OC)C(=O)COc1ccccc1` [Compound 1-48, (2′-{[Ethyl-(2-phenoxy-acetyl)-amino]-methyl}-6-methoxy-4′-trifluoromethyl-biphenyl-3-yl)-acetic acid] were < 300 nM, < 0.3 µM and > 1000 nM.
For `CCN(Cc1cc(C(F)(F)F)ccc1-c1cc(CC(=O)O)ccc1OC)C(=O)COCc1ccccc1` [Compound 1-92, (2′-{[(2-Benzyloxy-acetyl)-ethyl-amino]-methyl}-6-methoxy-4′-trifluoromethyl-biphenyl-3-yl)-acetic acid], the IC50 was < 300 nM at human DP2 receptor, < 0.3 µM in test [1] and > 1000 nM at human DP1 receptor.
Taken in the same sequence, the figures for `CCN(Cc1cc(C(F)(F)F)ccc1-c1cc(CC(=O)O)ccc1OC)C(=O)COc1ccc(Cl)cc1` [Compound 1-93, [2′-({[2-(4-Chloro-phenoxy)-acetyl]-ethyl-amino}-methyl)-6-methoxy-4′-trifluoromethyl-biphenyl-3-yl]-acetic acid] were < 300 nM, < 0.3 µM and > 1000 nM.
Taken in the same sequence, the figures for `CCN(Cc1ccccc1)C(=O)N(CC)Cc1cc(C(F)(F)F)ccc1-c1cc(CC(=O)O)ccc1OC` [Compound 1-94, [2′-(3-Benzyl-1,3-diethyl-ureidomethyl)-6-methoxy-4′-trifluoromethyl-biphenyl-3-yl]-acetic acid] were < 300 nM, < 0.3 µM and > 1000 nM.
Taken in the same sequence, the figures for `CCN(Cc1cc(C(F)(F)F)ccc1-c1cc(CC(=O)O)ccc1OC)C(=O)NCc1ccccc1` [Compound 1-96, [2′-(3-Benzyl-1-ethyl-ureidomethyl)-6-methoxy-4′-trifluoromethyl-biphenyl-3-yl]-acetic acid] were < 300 nM, < 0.3 µM and > 1000 nM.
Turning to `CCN(Cc1cc(C(F)(F)F)ccc1-c1cc(CC(=O)O)ccc1Cl)C(=O)OCc1ccccc1` [Compound 1-110], the IC50 was < 300 nM at human DP2 receptor, < 0.3 µM in test [1] and > 1000 nM at human DP1 receptor.
Taken in the same sequence, the figures for `CCN(Cc1cc(C(F)(F)F)ccc1-c1cc(CC(=O)O)ccc1OC)C(=O)C(C)(C)Oc1ccc(Cl)cc1` [Compound 1-118, [2′-({[2-(4-Chloro-phenoxy)-2-methyl-propionyl]-ethyl-amino}-methyl)-6-methoxy-4′-trifluoromethyl-biphenyl-3-yl]-acetic acid] were < 300 nM, < 0.3 µM and > 1000 nM.
Taken in the same sequence, the figures for `CCOc1ccc(CC(=O)O)cc1-c1ccc(C(F)(F)F)cc1CN(CC)C(=O)OCc1ccccc1` [Compound 1-129] were < 300 nM, < 0.3 µM and > 1000 nM.
Taken in the same sequence, the figures for `CCN(Cc1cc(F)ccc1-c1cc(CC(=O)O)ccc1OC)C(=O)C1CC1` [Compound 1-186, {2′-[(Cyclopropanecarbonyl-ethyl-amino)-methyl]-4′-fluoro-6-methoxy-biphenyl-3-yl}-acetic acid] were < 300 nM, < 0.3 µM and > 1000 nM.
Regarding `O=C(O)CCn1c2c(c3ccccc31)C[C@H](NS(=O)(=O)c1ccc(F)cc1)CC2` [Ramatroban, reference compound], the IC50 was 300 to 1000 nM on human DP2 receptor, 0.3 to 1 µM in test [1] and > 1000 nM on human DP1 receptor.
